# Measured values as given in paper PMC9698716, “From Serendipity to Rational Identification of the 5,6,7,8-Tetrahydrobenzo[4,5]thieno[2,3-d]pyrimidin-4(3H)-one Core as a New Chemotype of AKT1 Inhibitors for Acute Myeloid Leukemia” (Pharmaceutics, 2022).
# How the values were obtained:
# [1] = system: OCI-AML2; assay: Cell growth, viable cell count by trypan blue exclusion; format: cell-based, human; conditions: OCI-AML2, 5 µM, at 48 and 72 h
# [2] = system: cleaved-PARP; assay: Western blot of apoptosis marker in AML cell lines; format: cell-based, human; conditions: 5 µM, 48 h
# Procedure: Immunoblotting was conducted as described previously. Briefly, fresh cell pellets (0.2–0.5 × 10^6/test for AML cell lines) were dissolved directly in 30–60 μL of Laemmli sample buffer 1× (1.5 M Tris-HCl pH 6.8, glycerol, β-mercaptoethanol, SDS, bromophenol blue) and boiled at 95 °C for 5 min. The proteins were separated by SDS-polyacrylamide gel electrophoresis (SDS-PAGE) on Precast 4–15% gradient gels (Biorad, Hercules, CA, USA) transferred onto nitrocellulose membranes (GE Healthcare, Piscataway, NJ, USA) and probed with specific primary antibodies followed by horseradish peroxidase-conjugated secondary antibodies (GE Healthcare Lifesciences). The polypeptides were visualized using enhanced chemiluminescence (Luminata Crescendo, Merck Millipore, Burlington, MA, USA) according to the manufacturer’s instructions. The bands were visualized using the Biorad Chemidoc and the images were processed using the image lab software (Biorad) and Adobe Photoshop (Ps CC 2019). β-actin expression levels were used as a control for protein loading, as indicated. […]
# [3] = system: OCI-AML2; assay: Apoptosis by flow cytometry (Annexin V/7AAD); format: cell-based, human; conditions: OCI-AML2, 5 µM, 48 h
# Procedure: (§1) The cell apoptosis was assessed using Annexin V APC- or FITC-conjugated antibodies and counterstained with Propidium Iodide (PI) or 7AAD for the detection of necrotic cells (Becton Dickinson, Franklin Lakes, NJ, USA), according to the manufacturer’s protocol. The data acquisition and analysis were done with a FACS Canto II flow cytometer and data were acquired and analyzed using Diva software (Becton Dickinson, Franklin Lakes, NJ, USA).
# [4] = system: IMS-M2; assay: Apoptosis by flow cytometry (Annexin V/7AAD); format: cell-based, human; conditions: IMS-M2, 5 µM, 48 h
# Procedure: as §1
# [5] = system: OCI-AML3; assay: Apoptosis by flow cytometry (Annexin V/7AAD); format: cell-based, human; conditions: OCI-AML3, 5 µM, 48 h
# Procedure: as §1
# [6] = UV-VIS titration assay with increasing MgCl2; format: physicochemical; conditions: 100 µM compound, up to 10 mM MgCl2
# Procedure: The potential ability of T126 to chelate Mg^2+ ions was evaluated by spectrophotometric methods using a T70+ UV-Vis Spectrometer (PG Instruments, Leicestershire, UK) and a quartz cuvette with a 1 cm optical path. MgCl2. 5H2O 1M solution was prepared from powder (VWR International, Milan, Italy). The compound T126 was dissolved in DMSO to a final concentration of 10 mM and diluted with a milliQ water/DMSO mixture to a final concentration of 100 µM (4% DMSO). The obtained solution was placed in a cuvette and the UV-Vis spectra was recorded between 200 and 500 nm using water milliQ (with 4% DMSO) as reference. Thereafter, small volumes of MgCl2 aqueous solution were added both in the sample and in the reference cuvettes to obtain a series of solutions containing increasing concentrations of MgCl2 (1.25, 2.5, 5 and 10 mM), carefully pipetted for mixing, and the UV-Vis spectra were repeated. Each experiment was performed in triplicate.
# [7] = Solubility screen assay to determine chemical aggregation (nephelometry); format: physicochemical; conditions: AKT1 assay buffer pH 7.5, 37 °C, 2 h, NEPHELOstar Plus
# Procedure: The stock solutions (10–2 M) of the compound T126 were diluted to a decreased molarity, from 100 µM to 0.0001 µM, in 384-well transparent plates (Greiner 781801) with 1% DMSO: 99% buffer Hepes 100 mM, DMSO 4%, Brij 0.003%, Tween 20 0.004%, MgCl2 10 mM, at a pH = 7.5. Incubation occurred at 37 °C and the results were read after 2 h in a NEPHELOstar Plus (BMG LABTECH, Ortenberg, Germany). The results were adjusted to a segmented regression to obtain the maximum concentration in which the compounds were soluble.
# [8] = system: OCI-AML3; assay: Cell growth, viable cell count by trypan blue exclusion; format: cell-based, human; conditions: OCI-AML3, 5 µM, at 48 and 72 h
# [9] = system: phospho-mTOR, at site S2448; assay: Western blot of AKT signaling pathway in AML cell lines; format: cell-based, human; conditions: increasing concentrations (0.5 and 5 µM), 24 and 48 h, OCI-AML3, IMS-M2, OCI-AML2
# Procedure: (§2) Immunoblotting was conducted as described previously. Briefly, fresh cell pellets (0.2–0.5 × 10^6/test for AML cell lines) were dissolved directly in 30–60 μL of Laemmli sample buffer 1× (1.5 M Tris-HCl pH 6.8, glycerol, β-mercaptoethanol, SDS, bromophenol blue) and boiled at 95 °C for 5 min. The proteins were separated by SDS-polyacrylamide gel electrophoresis (SDS-PAGE) on Precast 4–15% gradient gels (Biorad, Hercules, CA, USA) transferred onto nitrocellulose membranes (GE Healthcare, Piscataway, NJ, USA) and probed with specific primary antibodies followed by horseradish peroxidase-conjugated secondary antibodies (GE Healthcare Lifesciences). The polypeptides were visualized using enhanced chemiluminescence (Luminata Crescendo, Merck Millipore, Burlington, MA, USA) according to the manufacturer’s instructions. The bands were visualized using the Biorad Chemidoc and the images were processed using the image lab software (Biorad) and Adobe Photoshop (Ps CC 2019). β-actin expression levels were used as a control for protein loading, as indicated.
# (§3) The primary antibodies used for western blot analyses are the following: mouse monoclonal anti-human β-actin (Clone AC-15; dilution 1:5000) from Sigma Aldrich (St. Louis, MO, USA); rabbit monoclonal anti-human Cleaved poly (ADP-ribose) polymerase (c-PARP) (Clone Asp 214; dilution 1:1000); rabbit monoclonal phospho-Akt (Ser473) (clone D9E, dilution 1.500); rabbit polyclonal phospho-mTOR (Ser2448) (dilution 1:500); rabbit polyclonal phospho-4E-BP1 (Ser65) (dilution 1:500); rabbit monoclonal Akt1 (clone D9R8K, dilution 1:500); rabbit polyclonal 4E-BP1 (dilution 1:500); and rabbit polyclonal mTOR (dilution 1:500), all from Cell Signaling (Cell Signaling Technology, Inc., Danvers, MA, USA).
# [10] = system: phospho-AKT, at site S473; assay: as above; format: cell-based, human
# Procedure: as §2, §3
# [11] = system: E4-BP1 phosphorylation at site S65; assay: as above; format: cell-based, human; conditions: increasing concentrations (0.5 and 5 µM), 24 and 48 h, OCI-AML3, IMS-M2, OCI-AML2
# Procedure: as §2, §3
smiles,measurement,setting,value
O=c1[nH]c(-c2ccc(O)c(O)c2)nc2sc3c(c12)CCCC3 [T126],cell growth inhibition,[1],significant cell growth inhibition
same,cleaved-PARP (marker of apoptosis),[2],detected
same,induction of apoptosis,[3],significant level of apoptosis
same,induction of apoptosis,[4],significant level of apoptosis
same,induction of apoptosis,[5],significant level of apoptosis
same,ability to chelate Mg^2+ ions,[6],inability of T126 to chelate Mg^2+ ions
same,concentration up to which no aggregation occurs,[7],≥ 100 µM
same,cell growth inhibition,[8],significant cell growth inhibition
same,phosphorylation of mTOR (S2448),[9],decreased phosphorylation
same,inhibition of p-AKT,"[10]; OCI-AML3, 4 h, 1 and 2.5 µM",inhibition of p-AKT was already observed
same,phosphorylation of AKT1 (S473),"[10]; increasing concentrations (0.5 and 5 µM), 24 and 48 h, OCI-AML3, IMS-M2, OCI-AML2",decreased phosphorylation
same,phosphorylation of 4E-BP1 (S65),[11],reduction of its phosphorylation levels
